# Measured values: patent publication US20250387352A1 (SpringWorks Therapeutics, Inc., priority 2024, published 2025)
# Experiments:
# [1] = tested on: NF1-associated plexiform neurofibromas (PNs); assay: Phase 2b trial of mirdametinib in adult and pediatric patients with NF1-associated inoperable plexiform neurofibromas: efficacy by BICR volumetric MRI (REiNS); assay type: in vivo, human
# Description: Study treatment was administered orally at a twice daily (BID) dose specified in the table below. Dosing was on a 28-day Cycle (4-week course) with a 3 week on/1 week off schedule. The treatment period will last for up to 24 Cycles followed by a 30-day Safety Follow-Up period.
# A partial response was defined as PN decrease ≥20% compared to baseline using centrally read MRI volumetric analysis.
# The major efficacy outcome measure was confirmed objective response rate (ORR), defined as the percentage of patients with complete response (disappearance of the target PN) or confirmed partial response (≥20% reduction in PN volume confirmed at a subsequent tumor assessment within 2-6 months during the 24-cycle treatment phase). Responses were assessed by blinded independent central review (BICR) using volumetric magnetic resonance imaging (MRI) analysis per Response Evaluation in Neurofibromatosis and Schwannomatosis (REINS) criteria. A secondary efficacy objective was to determine the duration of response for patients who achieved a confirmed objective response.
# [2] = Clinical pharmacokinetic parameters of mirdametinib (Table A); settings: human, in vivo
# [3] = Metabolism and excretion of mirdametinib (radioactivity recovery); assay type: in vivo
smiles,measurement,setting,value
"O=C(NOC[C@H](O)CO)c1ccc(F)c(F)c1Nc1ccc(I)cc1F (single isomer, unassigned) [mirdametinib]",median time to onset of response,[1]; adult cohort,7.8 months
same,ORR also considering confirmed objective response after cycle 24,[1]; adults,45%
same,median time to onset of response,[1]; pediatric cohort,7.9 months
same,ORR also considering confirmed objective response after cycle 24,[1]; pediatric patients,54%
same,Time to steady-state,[2],Approximately 6 days
same,Excretion: Radioactivity,[3]; In feces,In feces: 27%
same,Excretion: Radioactivity,[3]; In urine,In urine: 68%
same,Excretion: Unchanged mirdametinib,[3]; In urine,In urine: 0.7%
same,Excretion: Unchanged mirdametinib,[3]; In urine and feces,In urine and feces: 9%
